Laboratory results published in patent US10400263B2, “Tripeptide rhodamine compound” (Kingston Uninversity Higher Education Corporation, priority 2012, dated 2019).
Residues, ends and D or L forms follow the SMILES beside them. *: point of attachment. AMC = Cc1cc(=O)oc2cc(N*)ccc12; Boc = CC(C)(C)OC(=O)*

Legend:
MRSA and MSSA [1] = assay: Coumarin staphylocoagulase assay, MRSA and MSSA; type: cell-based, Staphylococcus aureus; details: 100 μM coumarin; MRSA and MSSA 10^6 and 10^5; FIG. 11
Procedure: (§1) As described for the LGX system, clinical isolates of Methicillin Resistant Staphylococcus Aureus (MRSA), Methicillin Sensitive Staphylococcus Aureus (MSSA), Staphylococcus Epidermidis and Eschericia coli were cultured on nutrient agar prior to being grown overnight in nutrient broth under shaking conditions at 37° C. To determine the effects of varying bacterial concentrations with respect to bacterial strains and N-t-BOC-val-pro-arg-7-amido-4-methylcoumarin concentrations on staphylocoagulase activity, a direct comparison between the LGX system and the existing use of N-t-BOC-val-pro-arg-7-amido-4-methylcoumarin as a means of detecting staphylocoagulase was necessary (Ford et al, 1999).
(§2) 100 μM and 500 μM solutions of coumarin solution were prepared in 1×PBS with the addition of 0.05 M Tris Buffer and 0.1 M NaCl to maintain a pH of 8.5 using N-t-BOC-val-pro-arg-7-amido-4-methylcoumarin dissolved in MeOH. Furthermore, 100 μM and 500 μM of human prothrombin was added to the solution. 90 μl of […] of N-t-BOC-val-pro-arg-7-amido-4-methylcoumarin solution was added to varying concentrations of bacteria (10^6, 10^5, 10^4, 10^3, 10^2 and 10^0, respectively) in a microliter plate and staphylocoagulase activity determined by fluorescence spectrophotometry (Excitation of 355 nm, Emmission of 460 nm) at 15 minute intervals over a 6 hour time period. […]

[2] = test system: MRSA, MSSA, S. epidermidis and E. coli; assay: Coumarin staphylocoagulase fluorescence assay, all four bacterial species; type: cell-based; details: 500 μM coumarin, FIG. 10
Procedure: as §1, §2

MRSA and MSSA [3] = details: post-culture (10^6-10^8 bacteria); cited from earlier work
MSSA = assay: Coumarin staphylocoagulase fluorescence assay, MSSA; type: cell-based, Staphylococcus aureus; details: 500 μM coumarin; MSSA 10^6; FIG. 10
Procedure: as §1, §2

[4] = test system: MRSA, MSSA, S. epidermidis and E. coli; assay: Coumarin assay, absorbance at 385 nm, all bacterial types; type: cell-based; details: 100 μM coumarin, FIG. 15
Procedure: To compare the efficacy of this staphylocoagulase assay with current, well established “gold standard” methods of coagulase detection such as a coumarin assay, coagulase test and latex agglutination test, bacterial isolates were prepared in suspension as above and clinical isolates of each respective strain was cultured overnight on nutrient agar. 90 μl of bacterial suspension was added to a solution consisting of 100 μM solutions of N-t-BOC-val-pro-arg-7-amido-4-methylcoumarin prepared in 1×PBS with the addition of 0.05 M Tris Buffer and 0.1 M NaCl to maintain a pH of 8.5. Staphylocoagulase activity was determined by measuring the absorbance at 385 nm at 15 minute intervals over a 6 hour time period. It should be noted that a concentration of 795 μM of the coumarin dye is usually required post-culture (10^6-10^8 bacteria) in order to observe a significant chromogenic response.

bacterial viability = assay: Effect of methanol on bacterial viability (colony count); type: cell-based; details: 2 hours incubation, all bacteria concentrations (10^2-10^6), plated on nutrient agar overnight
Procedure: Tests were also run to validate that the methanol had no adverse effects on the growth of a number of bacterial strains up to a ˜5% methanol solution. Varying concentrations of methanol (0.25%, 0.5%, 1%, 2.5 5, 4% and 5%) were incubated with each bacterial species also at varying concentrations (10^2-10^6) for 2 hours prior to plating on nutrient agar to assess the effects of the solvent on bacterial viability.

Structure (SMILES) | discrimination between bacterial samples by fluorescence (MRSA and MSSA [1]) | discrimination between bacterial species by fluorescence ([2]; all bacterial species 10^6) | fluorescence over the 6 hour time period ([2]; high and low concentrations of MRSA, MSSA, S. epidermidis and E. coli) | concentration usually required to observe a significant chromogenic response (MRSA and MSSA [3]) [µM] | fluorescence (MSSA) | absorbance over the 6 hour time period ([4]; 10^5, 10^4, 10^3 and 10^2) | absorbance over the 6 hour time period ([4]; 10^6 of all bacterial types) | methanol concentration up to which bacterial viability was not compromised (bacterial viability)
Cc1cc(=O)oc2cc(NC(=O)[C@H](CCCNC(=N)N)NC(=O)[C@@H]3CCCN3C(=O)[C@@H](NC(=O)OC(C)(C)C)C(C)C)ccc12 [N-t-BOC-val-pro-arg-7-amido-4-methylcoumarin] (Boc-Val-Pro-Arg-{AMC}) | no discrimination between bacterial samples | little discrimination between the fluorescence of all samples | no increase in fluorescence was observed | 795 | a slight increase was observed | no increase or variance between bacterial strains | little increase over the 6 hour time period | 
CO [methanol] |  |  |  |  |  |  |  | up to 4%
